Our source for the IC50 values is patent publication US20120035214A1, “RENIN INHIBITORS” (Merck Canada Inc., priority 2009, published 2012).

Where only a bound is given, the exact number is not on record here.

For one experiment, the target named is T1, Human recombinant renin (Homo sapiens, UniProt P00797).
T1 construct: purchased Proteos
T1 sequence (P00797 67-406): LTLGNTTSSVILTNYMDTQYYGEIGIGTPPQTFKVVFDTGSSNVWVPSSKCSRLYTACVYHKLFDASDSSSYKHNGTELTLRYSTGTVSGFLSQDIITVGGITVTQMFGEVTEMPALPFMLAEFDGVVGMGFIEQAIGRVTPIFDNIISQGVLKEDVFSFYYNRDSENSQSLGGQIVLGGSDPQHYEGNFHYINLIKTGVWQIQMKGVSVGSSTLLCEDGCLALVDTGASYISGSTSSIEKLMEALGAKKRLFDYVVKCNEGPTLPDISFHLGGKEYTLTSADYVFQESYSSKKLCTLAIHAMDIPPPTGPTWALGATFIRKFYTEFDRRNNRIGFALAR
The experiment is described as follows: Inhibition of human recombinant renin (QFRET, buffer). As to conditions: buffer: 50 mM MOPS pH 7.4, 100 mM NaCl, 0.002% Tween 20; 37° C., 3 hours. The format is biochemical. The method, then: Inhibition of Human Recombinant Renin
Human recombinant renin (Proteos) in 50 mM MOPS pH 7.4, 100 mM NaCl, 0.002% Tween 20 at a final concentration of […] is incubated with inhibitors from a 50 fold concentrated DMSO solution and 6 μM of an internally-quenched fluorescent peptide: DNP-[…]D,L-Amp (SEQ ID NO: 1); Paschalidou K. et al., Biochem J., 2004, 382, 1031). The reactions take place in a Costar 384 well black plate (#3573) at 37° C. for 3 hours. Fluorescence is measured at times 0 and 3 hours with a SpectraMax Gemini EM reader set at an excitation wavelength of 328 nm and at an emission wavelength of 388 nm. Background fluorescence at t=0 is subtracted from the measurement at t=3 hours. Inhibitory activity of the compounds is expressed as IC50.

Experiment [1] deals with T2, recombinant renin in human plasma (Homo sapiens, UniProt P00797).
T2 construct: purchased Proteos
T2 sequence (P00797 67-406): T1 sequence (P00797 67-406)
The experiment is described as follows: Inhibition of renin in human plasma (QFRET, plasma). The format is biochemical. The settings on record: human EDTA plasma with 1 nM recombinant renin added; 37° C., 1 hour. The method, then: Inhibition of Renin in Human Plasma
Human EDTA-collected plasma is rapidly thawed in warm water and centrifuged at 2900 g for 15 minutes at 4° C. The supernatant is collected and recombinant renin (Proteos) is added at a final concentration of 1 nM. The plasma is transferred to a Costar black 384 well plate (#3573). Renin inhibitors are added from a 17.5 fold concentrated DMSO solution and pre-incubated at 37° C. for 10 minutes. The internally-quench fluorescent peptide QXL520™-[…](5-FAM) (Anaspec), SEQ ID NO: 2, is diluted in 3M Tris pH 7.2, 200 mM EDTA and added to the plasma. The final concentrations are: 6 μM substrate, 342 mM Tris, 23 mM EDTA. The plate is incubated at 37° C. for 1 hour. The plate is read in a SpectraMax Gemini EM reader set at an excitation wavelength of 490 nm and an emission wavelength of 520 nm at times 0 and 1 hour. Background fluorescence at t=0 is subtracted from the measurement at t=1 hour. Inhibitory activity of the compounds is expressed as IC50.

By IC50 is commonly meant the midpoint of a concentration-inhibition curve.

`O=C(NCCc1ccccc1-c1ccc([C@H]2CNCC[C@@H]2c2ccc(F)c(F)c2)c(Cl)c1)C(F)(F)F` (racemic) [Structure 41]: the half-maximal inhibitory concentration (IC50) at Human recombinant renin was 0.1 nM; in experiment [1], 6.6 nM.

Turning to `COC(=O)NCCc1ccccc1-c1ccc([C@H]2CNCC[C@@H]2c2ccc(F)c(F)c2)c(Cl)c1` (racemic) [Structure 42], the IC50 was 0.14 nM at Human recombinant renin and 9.8 nM in experiment [1].

`O=C(CO)NCCc1ccccc1-c1ccc([C@H]2CNCC[C@@H]2c2ccc(F)c(F)c2)c(Cl)c1` (racemic) [Structure 43]: the IC50 came out at 0.26 nM on Human recombinant renin and 3.5 nM in experiment [1].

On to `CC(=O)NCCc1ccccc1-c1ccc([C@H]2CNCC[C@@H]2c2ccc(F)c(F)c2)cc1` (racemic) [Structure 44], for which the IC50 on Human recombinant renin stood at 3.7 nM; in experiment [1], 45 nM.

Regarding `CC(=O)NCCc1ccccc1-c1ccc([C@H]2CNCC[C@@H]2c2cccnc2N)c(Cl)c1` (racemic) [Structure 45], the IC50 at Human recombinant renin was 710 nM; in experiment [1], 4580 nM.

Consider `CC(=O)NCCc1ccc(C(F)(F)F)cc1-c1ccc([C@H]2CNCC[C@@H]2c2ccc(F)c(F)c2)c(Cl)c1` (racemic) [Structure 46], for which the results for the IC50 (on Human recombinant renin; in experiment [1]) were 0.78 nM and 280 nM, respectively.

As for `CC(=O)NCCc1cc(C(F)(F)F)ccc1-c1ccc([C@H]2CNCC[C@@H]2c2ccc(F)c(F)c2)c(Cl)c1` (racemic) [Structure 47], the concentration for half-maximal inhibition (IC50) was found to be 0.59 nM at Human recombinant renin and 140 nM in experiment [1].

For the compound `COCCCc1ccccc1-c1ccc([C@H]2CNCC[C@]2(OCC(O)CO)c2ccc(F)c(F)c2)c(C)c1` (mixture of isomers) [Structure 48], the concentration for half-maximal inhibition (IC50) on Human recombinant renin is 16 nM; in experiment [1], 2020 nM.

For the compound `CC(=O)NCc1ccccc1-c1ccc([C@H]2CNCC[C@@H]2c2ccc(F)c(F)c2)cc1` (racemic) [Structure 49], the IC50 worked out at 1710 nM on Human recombinant renin and 9040 nM in experiment [1].

For the compound `COCCCc1ccccc1-c1cc(C)c([C@H]2CNCC[C@@H]2c2ccc(Cl)c(F)c2)cn1` (racemic) [Structure 50], the half-maximal inhibitory concentration (IC50) is 1.5 nM on Human recombinant renin and 230 nM in experiment [1].

Turning to `CC(=O)NCCc1ccccc1-c1ccc([C@H]2CNCC[C@]2(O)c2ccc(F)c(F)c2)c(C)c1` (racemic) [Structure 51], the IC50 turned out to be 0.5 nM at Human recombinant renin and 5 nM in experiment [1].

With `COCCCc1ccccc1-c1ccc([C@H]2CNCC[C@@H]2c2ccc(N)nc2)c(Cl)c1` (racemic) [Structure 52], the half-inhibitory concentration (IC50) came to 150 nM on Human recombinant renin and 1630 nM in experiment [1].

As for `COCCCc1ccccc1-c1ccc([C@H]2CNCC[C@@H]2c2cccnc2N)c(Cl)c1` (racemic) [Structure 53], the concentration for half-maximal inhibition (IC50) on Human recombinant renin was determined as 12 nM; in experiment [1], 250 nM.

On to `COC[C@H](C)COCc1ccc([C@@]2(O)CCNC[C@@H]2c2ccc(-c3ccccc3CCNC(C)=O)cc2C)cc1` (racemic) [Structure 54], for which the figures for the 50% inhibitory concentration (IC50) (at Human recombinant renin; in experiment [1]) were 0.13 nM and 1.2 nM, respectively.

Consider `COCC(F)(F)COCc1ccc([C@@]2(O)CCNC[C@@H]2c2ccc(-c3ccccc3CCNC(C)=O)cc2C)cc1` (racemic) [Structure 55], for which the figures for the half-maximal inhibitory concentration (IC50) (on Human recombinant renin; in experiment [1]) were 0.17 nM and 0.95 nM, respectively.

Consider `CC(=O)NCCc1ccccc1-c1ccc([C@H]2CNCC[C@]2(O)c2ccc(COCCOC(C)C)cc2)c(C)c1` (racemic) [Structure 56], for which the results for the IC50 (on Human recombinant renin; in experiment [1]) were 0.26 nM and 3.8 nM, respectively.

`COCCCc1ccccc1-c1ccc([C@H]2CNCC[C@@H]2c2ccn(C)c(=O)c2)c(Cl)c1` (racemic) [Structure 57]: the IC50 was found to be 6.4 nM on Human recombinant renin and 80 nM in experiment [1].

In the case of `CC(=O)NCCc1ccccc1-c1ccc([C@H]2CNCC[C@@H]2c2ccn(C)c(=O)c2)c(Cl)c1` (racemic) [Structure 58], the 50% inhibitory concentration (IC50) at Human recombinant renin amounted to 3.6 nM; in experiment [1] it was 7.1 nM.

Consider `CCC(=O)NCCc1ccccc1-c1ccc([C@H]2CNCC[C@@H]2c2ccn(C)c(=O)c2)c(Cl)c1` (racemic) [Structure 61], for which the IC50 on Human recombinant renin stood at 6.2 nM; in experiment [1] it was 7.9 nM.

Consider `COC(=O)NCCc1ccccc1-c1ccc([C@H]2CNCC[C@@H]2c2ccn(C)c(=O)c2)c(Cl)c1` (racemic) [Structure 62], for which the IC50 on Human recombinant renin turned out to be 4.2 nM; in experiment [1] it was 4.9 nM.

On to `CCOC(=O)NCCc1ccccc1-c1ccc([C@H]2CNCC[C@@H]2c2ccn(C)c(=O)c2)c(Cl)c1` (racemic) [Structure 63], for which the concentration for half-maximal inhibition (IC50) is 16 nM at Human recombinant renin and 24 nM in experiment [1].

On to `COCC(=O)NCCc1ccccc1-c1ccc([C@H]2CNCC[C@@H]2c2ccn(C)c(=O)c2)c(Cl)c1` (racemic) [Structure 64], for which the IC50 on Human recombinant renin was found to be 110 nM; in experiment [1], 77 nM.

For the compound `CC(=O)NCCc1ccc(F)cc1-c1ccc([C@H]2CNCC[C@@H]2c2ccn(C)c(=O)c2)c(Cl)c1` (racemic) [Structure 65], the half-maximal inhibitory concentration (IC50) amounted to 6.5 nM on Human recombinant renin and 6 nM in experiment [1].

For the compound `COc1cc(CCNC(C)=O)c(-c2ccc([C@H]3CNCC[C@@H]3c3ccn(C)c(=O)c3)c(Cl)c2)cc1OC` (racemic) [Structure 66], the half-maximal inhibitory concentration (IC50) on Human recombinant renin is 1320 nM; in experiment [1] it was 4900 nM.

On to `CC(=O)NCCc1ccccc1-c1ccc([C@H]2CNCC[C@@H]2c2cccnc2)c(C)c1` [Structure 4], for which the figures for the IC50 (on Human recombinant renin; in experiment [1]) were 6.1 nM and 28 nM, respectively.

As for `CC(=O)NCCc1ccccc1-c1ccc([C@@H]2CNCC[C@H]2c2cccnc2)c(C)c1` [Structure 5], the half-maximal inhibitory concentration (IC50) at Human recombinant renin came to 1410 nM; in experiment [1] it was 7280 nM.

As to `CC(=O)NCCc1ccccc1-c1ccc([C@H]2CNCC[C@@H]2c2cccnc2)c(Cl)c1` [Structure 13], the IC50 on Human recombinant renin turned out to be 1.5 nM; in experiment [1], 4.1 nM.

In the case of `CC(=O)NCCc1ccccc1-c1ccc([C@@H]2CNCC[C@H]2c2cccnc2)c(Cl)c1` [Structure 14], the IC50 is 2630 nM at Human recombinant renin and over 9500 nM in experiment [1].

Turning to `CC(=O)NCCc1ccccc1-c1ccc([C@H]2CNCC[C@@H]2c2cc(F)cc(F)c2)c(C)c1` [Structure 16], the IC50 at Human recombinant renin was found to be 0.59 nM; in experiment [1], 16 nM.

For `CC(=O)NCCc1ccccc1-c1ccc([C@@H]2CNCC[C@H]2c2cc(F)cc(F)c2)c(C)c1` [Structure 17], the IC50 is 530 nM on Human recombinant renin and 11600 nM in experiment [1].

With `CC(=O)NCCc1ccccc1-c1ccc([C@H]2CNCC[C@@H]2c2ccn(C)c(=O)c2)c(Cl)c1` [Structure 59], the values for the concentration for half-maximal inhibition (IC50) (on Human recombinant renin; in experiment [1]) were 2.1 nM and 3.4 nM, respectively.

As for `CC(=O)NCCc1ccccc1-c1ccc([C@@H]2CNCC[C@H]2c2ccn(C)c(=O)c2)c(Cl)c1` [Structure 60], the half-inhibitory concentration (IC50) stood at 710 nM at Human recombinant renin and 1350 nM in experiment [1].

Consider `O[C@]1(c2ccc(F)c(F)c2)CCNC[C@@H]1c1cc(-c2ccc(F)cc2Br)no1` [Structure 67], for which the IC50 came out at 400 nM on Human recombinant renin and 8650 nM in experiment [1].

Regarding `O[C@]1(c2ccc(F)c(F)c2)CCNC[C@@H]1c1cc(-c2c(Cl)cccc2Cl)no1` [Structure 68], the IC50 is 1210 nM at Human recombinant renin and over 9500 nM in experiment [1].

Turning to `O[C@]1(c2ccc(F)c(F)c2)CCNC[C@@H]1c1onc(-c2c(Cl)cccc2Cl)c1Br` [Structure 70], the IC50 on Human recombinant renin worked out at 3.7 nM; in experiment [1] it was 130 nM.

As for `O[C@]1(c2ccc(F)c(F)c2)CCNC[C@@H]1c1onc(-c2cccc(Cl)c2Cl)c1Br` [Structure 71], the results for the IC50 (on Human recombinant renin; in experiment [1]) were 0.21 nM and 7.8 nM, respectively.

As to `O[C@]1(c2ccc(F)c(F)c2)CCNC[C@@H]1c1onc(-c2ccccc2Cl)c1Br` [Structure 72], the IC50 was 1.1 nM on Human recombinant renin and 27 nM in experiment [1].

`Cc1cccc(-c2noc([C@H]3CNCC[C@]3(O)c3ccc(F)c(F)c3)c2Br)c1C` [Structure 73]: the IC50 stood at 0.47 nM at Human recombinant renin and 21 nM in experiment [1].

As to `Cc1ccc(Cl)c(-c2noc([C@H]3CNCC[C@]3(O)c3ccc(F)c(F)c3)c2Br)c1F` [Structure 74], the IC50 is 4.9 nM at Human recombinant renin and 430 nM in experiment [1].

For the compound `O[C@]1(c2ccc(F)c(F)c2)CCNC[C@@H]1c1onc(-c2cccc3ccccc23)c1Br` [Structure 75], the concentration for half-maximal inhibition (IC50) on Human recombinant renin worked out at 0.064 nM; in experiment [1], 4.7 nM.
